Source: publication PMC8025584, “Identification of multipotent drugs for COVID-19 therapeutics with the evaluation of their SARS-CoV2 inhibitory activity” (Computational and Structural Biotechnology Journal, 2021)
Where two headings read alike, the source gives them in different places.

Assays:
in vitro = settings: monkey
[1] = system: SARS-CoV2 virus (IND/ILS-01/2020); experiment: Drug assay: viral load by real-time RT-PCR in SARS-CoV2 infected Vero E6 cells; type: cell-based; settings: Vero E6, 0.1 MOI, 24 h treatment, cell-associated viral RNA by RT-PCR
Vero E6 cells = settings: Vero E6, MTT, 0.01-20 µM
[2] = design: method as in PMID 26506265, PMID 24466249, PMID 22454559; settings: cited from earlier work
SARS-CoV2 = system: SARS-CoV2; design: method as in PMID 33330842; settings: cited from earlier work
[3] = system: differentially expressed human proteins in COVID-19; settings: ref DGIdb, cited from earlier work
[4] = Severe acute respiratory syndrome coronavirus 2, Vero C1008
[5] = gene TNF, drug-gene interaction listed in DGIdb export

Molecule: CCN(CCO)CCCC(C)Nc1ccnc2cc(Cl)ccc12 (stereo not shown) [Hydroxychloroquine]
- CC50 (in vitro): > 20 µM
- IC50 [1, 4]: 5 µM

Molecule: OC(c1cc(C(F)(F)F)nc2c(C(F)(F)F)cccc12)C1CCCCN1 (stereo not shown) [Mefloquine]
- CC50 (in vitro): > 20 µM
- IC50 [1, 4]: 0.37 µM

Molecule: Ivermectin
- IC50 [1]: 5.54 µM
- CC50 (Vero E6 cells): 15 µM

Molecule: CC(C)(O)c1ccccc1CC[C@@H](SCC1(CC(=O)O)CC1)c1cccc(/C=C/c2ccc3ccc(Cl)cc3n2)c1 [Montelukast]
- CC50 (in vitro): > 20 µM
- can cross blood brain barrier [2]: can cross blood brain barrier

Molecule: OC(CNCC(O)C1CCc2cc(F)ccc2O1)C1CCc2cc(F)ccc2O1 (stereo not shown) [Nebivolol]
- inhibition of SARS-CoV2 (SARS-CoV2): submicromolar range
- CC50 (in vitro): > 20 µM
- can cross blood brain barrier [2]: can cross blood brain barrier
- IC50 [1, 4]: 5.21 µM

Molecule: Cc1ccc(-c2cc(C(F)(F)F)nn2-c2ccc(S(N)(=O)=O)cc2)cc1 [Celecoxib]
- CC50 (in vitro): > 20 µM
- can cross blood brain barrier [2]: can cross blood brain barrier
- IC50 [1, 4]: 3.25 µM

Molecule: Capreomycin
- IC50 [1]: 1 µM
- CC50 (Vero E6 cells): > 20 µM

B1: CERTOLIZUMAB PEGOL (antibody, chains of the INN, looked up, V domains shown)
VH: EVQLVESGGGLVQPGGSLRLSCAASGYVFTDYGMNWVRQAPGKGLEWMGWINTYIGEPIYADSVKGRFTFSLDTSKSTAYLQMNSLRAEDTAVYYCARGYRSYAMDYWGQGTLVTVSS
VL: DIQMTQSPSSLSASVGDRVTITCKASQNVGTNVAWYQQKPGKAPKALIYSASFLYSGVPYRFSGSGSGTDFTLTISSLQPEDFATYYCQQYNIYPLTFGQGTKVEIK
modifications: Fab' PEGylated
- interaction_types [3, 5]: inhibitor

B2: TABALUMAB (antibody, chains of the INN, looked up, V domains shown)
VH: QVQLQQWGAGLLKPSETLSLTCAVYGGSFSGYYWSWIRQPPGKGLEWIGEINHSGSTNYNPSLKSRVTISVDTSKNQFSLKLSSVTAADTAVYYCARGYYDILTGYYYYFDYWGQGTLVTVSS
VL: EIVLTQSPATLSLSPGERATLSCRASQSVSRYLAWYQQKPGQAPRLLIYDASNRATGIPARFSGSGSGTDSTLTISSLEPEDFAVYYCQQRSNWPRTFGQGTKVEIK
- interaction_types ([3]; gene TNFSF13B, drug-gene interaction listed in DGIdb export): inhibitor

B3: LENOGRASTIM (protein, UniProt P09919 31-207, looked up)
Granulocyte …: TPLGPASSLPQSFLLKCLEQVRKIQGDGAALQEKLVSECATYKLCHPEELVLLGHSLGIPWAPLSSCPSQALQLAGCLSQLHSGLFLYQGLLQALEGISPELGPTLDTLQLDVADFATTIWQQMEELGMAPALQPTQGAMPAFASAFQRRAGGVLVASHLQSFLEVSYRVLRHLAQP
modifications: glycosylated
- interaction_types ([3]; gene CSF3R): agonist

B4: ONERCEPT (protein, UniProt P19438 30-211, looked up)
extracellular domain: LVPHLGDREKRDSVCPQGKYIHPQNNSICCTKCHKGTYLYNDCPGPGQDTDCRECESGSFTASENHLRHCLSCSKCRKEMGQVEISSCTVDRDTVCGCRKNQYRHYWSENLFQCFNCSLCLNGTVHLSCQEKQNTVCTCHAGFFLRENECVSCSNCKKSLECTKLCLPQIENVKGTEDSGTT
modifications: extracellular domain
- interaction_types [3, 5]: inhibitor

B5: PEGSUNERCEPT (protein, UniProt P19438 30-211, looked up)
extracellular domain: LVPHLGDREKRDSVCPQGKYIHPQNNSICCTKCHKGTYLYNDCPGPGQDTDCRECESGSFTASENHLRHCLSCSKCRKEMGQVEISSCTVDRDTVCGCRKNQYRHYWSENLFQCFNCSLCLNGTVHLSCQEKQNTVCTCHAGFFLRENECVSCSNCKKSLECTKLCLPQIENVKGTEDSGTT
modifications: extracellular domain PEGylated
- interaction_types [3, 5]: inhibitor
